Test results reported in ChEMBL document CHEMBL1201862, “PubChem BioAssay data set” (2004).
Activity calls are given as the source filed them.

Tests used:
[1] = system: Streptococcus sp. 'group A'; assay: Streptococcus pyogenes SK(-)GAS viability under kanamycin – luminescence, BacTiterGlo, confirmation, counter-screen for streptokinase expression inhibitor project, dose response (AID 1900); format: functional, organism-based
[2] = target: T1, Heat shock factor protein 1 (Mus musculus, UniProt P38532); assay: decrease of HSF1-responsive luciferase luminescence – cell-based, NIH3T3, dose retest, confirmation (AID 2382); format: functional;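 note: NIH3T3 fibroblasts with HSF1-driven luciferase reporter stressed by proteasome inhibitor MG132; luminescence from HSF1-driven luciferase expression after 8 hours of MG132 stress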
T1 sequence (P38532 whole entry): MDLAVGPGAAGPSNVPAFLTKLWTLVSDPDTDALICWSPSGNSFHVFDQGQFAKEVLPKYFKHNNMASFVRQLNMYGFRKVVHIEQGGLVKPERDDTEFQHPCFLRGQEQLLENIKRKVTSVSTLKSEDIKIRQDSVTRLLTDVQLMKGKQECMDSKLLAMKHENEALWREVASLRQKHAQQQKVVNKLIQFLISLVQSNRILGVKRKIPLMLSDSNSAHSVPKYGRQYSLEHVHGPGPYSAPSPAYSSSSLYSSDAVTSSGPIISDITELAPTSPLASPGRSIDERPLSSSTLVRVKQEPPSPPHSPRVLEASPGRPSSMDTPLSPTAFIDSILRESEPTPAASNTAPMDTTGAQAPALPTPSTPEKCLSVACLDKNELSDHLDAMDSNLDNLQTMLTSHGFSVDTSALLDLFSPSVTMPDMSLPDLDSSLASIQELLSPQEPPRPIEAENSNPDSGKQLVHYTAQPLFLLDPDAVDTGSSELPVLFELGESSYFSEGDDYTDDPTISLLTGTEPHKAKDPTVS

Streptococcus = assay: GAS UMAA2166 growth inhibition – luminescence, BacTiterGlo, counter-screen for streptokinase expression inhibitor project, dose response (AID 1915); format: functional, organism-based;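 note: potency for reduction of bacterial viability or growth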
[3] = Luminescence Cell-Based Dose Retest to Confirm Inhibitors of Cancer Stem Cells. [Related pubchem assays (depositor defined):AID2717, AID2721]; format: functional, Homo sapiens; conditions: Homo sapiens
INS1 = assay: INS-1E survival protection against cytokine death – cell-based, luminescence, retest, dose response (AID 449756); format: functional; conditions: Rattus norvegicus;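 note: cell death triggered by IL-1 beta plus TNF-alpha plus IFN-gamma mixture; protective hits raise ATP signal compared with cytokine alone wells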
[4] = reduction of Shn3 3'UTR-driven luciferase in osteoblasts – cell-based, Clone20 osteoblasts, firefly luciferase, cherry-picked, dose response (AID 624132); format: functional;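 note: firefly luciferase luminescence from reporter carrying the Shn3 3'UTR in osteoblasts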
[5] = Shn3 3'UTR reporter signal decrease – cell-based, Clone20 osteoblasts, firefly luciferase, cherry-pick, set 2, Schnurri-3 inhibitor project, dose response (AID 720490); format: functional;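 note: actives lower the luminescence signal as inhibitors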
[6] = EF1alpha-driven Renilla reporter with control 3'UTR suppression – Clone20-Shn3RL cells, dual-Glo, cherry-pick, set 2, counter-screen for Shn3 3'UTR targeting project, dose response (AID 720724); format: functional, cell-based; conditions: Dual-Go Shn3RL
Paired box protein Pax-8 = Paired box protein Pax-8 (Homo sapiens, UniProt Q06710); assay: PAX8 transcriptional activity inhibition in RMG-I – RMG-I cells, luciferase, cherry-pick, dose response (AID 687027); format: functional, cell-based;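 note: luciferase reporter driven by Pax8 target thyroperoxidase promoter measured by SteadyGlo luminescence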
[7] = toxicity toward immortalized ovarian surface epithelium – cell-based, plate reader, dry powder samples, cytotoxicity control for PAX8 inhibitor project, dose response (AID 743045); format: functional
[8] = OVCAR-3 cell viability loss – plate reader, dry powder samples, PAX8 inhibitor project, dose response (AID 743044); format: functional, cell-based
[9] = IGROV1 cell killing – plate reader, dry powder samples, PAX8 inhibitor project, dose response (AID 743043); format: functional, cell-based; conditions: IGROV-1
[10] = OVCAR8 cell viability loss – plate reader, dry powder samples, PAX8 project, dose response (AID 743197); format: functional, cell-based; conditions: OVCAR-8
[11] = MITF Orthogonal Assay: SK-MEL-5 CTG Assay Measured in Cell-Based System Using Plate Reader - 2084-02_Inhibitor_Dose_DryPowder_Activity_Set7.; format: functional
[12] = MITF: Counter assay: A375 proliferation Measured in Cell-Based System Using Plate Reader - 2084-03_Inhibitor_Dose_DryPowder_Activity_Set8.; format: functional; conditions: A-375
[13] = inhibitors of TRPM1-promoter reporter in SK-MEL-5 – cell-based, luciferase, dry powder, set 8, MITF inhibitor project, dose response (AID 624430); format: functional
[14] = target: T2, Methionyl-tRNA synthetase, putative (Trypanosoma brucei brucei, UniProt Q38C91); format: functional, Trypanosoma brucei brucei strain 927/4 GUTat10.1
T2 sequence (Q38C91 whole entry): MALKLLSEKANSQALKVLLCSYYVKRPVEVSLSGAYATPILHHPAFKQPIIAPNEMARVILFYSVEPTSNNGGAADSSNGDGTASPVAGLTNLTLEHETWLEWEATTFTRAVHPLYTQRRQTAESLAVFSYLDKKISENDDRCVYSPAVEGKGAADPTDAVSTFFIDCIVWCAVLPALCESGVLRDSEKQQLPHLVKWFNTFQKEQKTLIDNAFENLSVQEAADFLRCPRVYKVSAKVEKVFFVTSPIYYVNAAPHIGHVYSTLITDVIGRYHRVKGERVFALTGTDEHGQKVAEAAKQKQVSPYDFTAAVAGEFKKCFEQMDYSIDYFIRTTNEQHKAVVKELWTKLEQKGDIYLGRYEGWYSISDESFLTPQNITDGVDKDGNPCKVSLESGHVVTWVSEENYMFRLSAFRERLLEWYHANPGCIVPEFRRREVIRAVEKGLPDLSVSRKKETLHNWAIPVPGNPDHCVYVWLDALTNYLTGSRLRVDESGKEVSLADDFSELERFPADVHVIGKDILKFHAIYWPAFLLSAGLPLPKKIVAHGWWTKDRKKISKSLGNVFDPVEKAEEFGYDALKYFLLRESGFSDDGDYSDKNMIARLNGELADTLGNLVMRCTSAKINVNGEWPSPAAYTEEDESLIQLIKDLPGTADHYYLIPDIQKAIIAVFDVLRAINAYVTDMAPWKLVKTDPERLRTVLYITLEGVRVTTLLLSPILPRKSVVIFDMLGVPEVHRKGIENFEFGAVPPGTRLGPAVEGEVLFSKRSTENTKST

[15] = Counterscreen for inhibitors of Trypanosoma brucei methionyl tRNA synthetase (MetRS): Luminescence-based cell-based high throughput dose response assay to identify compounds that are cytotoxic to Jurkat human T lymphocyte cells.; format: functional
[16] = target: T2, Methionyl-tRNA synthetase, putative; format: functional, Trypanosoma brucei brucei strain 927/4 GUTat10.1; remark: listed apart in the source
[17] = Late stage counterscreen for inhibitors of Trypanosoma brucei methionyl tRNA synthetase (MetRS): Luminescence-based cell-based high throughput dose response assay to identify compounds that are cytotoxic to Jurkat human T lymphocyte cells.; format: functional
[18] = inhibitors of non-replicating M. tuberculosis, dose response, luciferase, dry powder (AID 651619); format: functional; conditions: Mycobacterium tuberculosis
[19] = inhibitors of non-replicating M. tuberculosis, dose response, luciferase, dry powder (AID 651620); format: functional; conditions: Mycobacterium tuberculosis
cells [20] = format: functional, cell-based
cells [21] = format: functional, cell-based; remark: listed apart in the source
[22] = potency of ADAM10 substrate cleavage blockers – biochemical, QFRET, dose response (AID 743254);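 note: ADAM10 enzyme with the DM2 quenched FRET peptide as substrate; EDANS fluorescence gain as the protease cuts the substrate; inhibitor potency against ADAM10 proteolytic activity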
[23] = target: Disintegrin and metalloproteinase domain-containing protein 17 (Homo sapiens, UniProt P78536); assay: inhibition of ADAM17 substrate cleavage – biochemical, quenched FRET substrate, counter-screen for ADAM10 exosite inhibitor project, dose response (AID 743253)
Vero [24] = assay: cells; format: functional, cell-based; conditions: Chlorocebus sabaeus
Vero [25] = assay: cells; format: functional; conditions: Chlorocebus sabaeus
[26] = A Cell-Based Counter Screen testing Compounds that Inhibit VEEV TC-83, in strain KU V3526.; format: functional
[27] = A Cell-Based Confirmatory Screen for Compounds that Inhibit VEEV, TC-83 (8).; format: functional
[28] = A Cell-Based Confirmatory Screen for Compounds that Inhibit VEEV, TC-83 (2).; format: functional
Leucine aminopeptidase = target: T3, Leucine aminopeptidase (Plasmodium falciparum 3D7, UniProt Q8IL11); assay: P. falciparum M17LAP inhibitors, primary screen, biochemical, fluorogenic H-Leu-NHMec substrate, 1536-well (AID 1619); format: functional
T3 sequence (Q8IL11 whole entry): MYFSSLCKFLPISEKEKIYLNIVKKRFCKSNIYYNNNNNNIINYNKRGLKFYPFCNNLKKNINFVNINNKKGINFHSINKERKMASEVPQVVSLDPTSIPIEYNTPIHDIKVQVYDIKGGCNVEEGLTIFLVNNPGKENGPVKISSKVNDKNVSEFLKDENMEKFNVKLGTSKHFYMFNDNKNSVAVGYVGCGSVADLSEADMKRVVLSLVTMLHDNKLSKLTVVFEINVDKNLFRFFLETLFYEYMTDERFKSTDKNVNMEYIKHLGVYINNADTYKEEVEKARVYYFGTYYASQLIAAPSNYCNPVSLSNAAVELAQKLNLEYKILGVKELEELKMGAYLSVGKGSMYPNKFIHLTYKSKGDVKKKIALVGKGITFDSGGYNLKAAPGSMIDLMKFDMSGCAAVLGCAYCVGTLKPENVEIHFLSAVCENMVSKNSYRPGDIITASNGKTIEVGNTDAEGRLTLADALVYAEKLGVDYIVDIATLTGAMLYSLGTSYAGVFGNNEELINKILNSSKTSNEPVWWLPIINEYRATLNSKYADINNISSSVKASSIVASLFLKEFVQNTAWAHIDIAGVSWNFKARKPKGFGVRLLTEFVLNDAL

BJ [29] = assay: BJ-TERT fibroblast viability loss – cell-based, RAS-independent, luminescence, dose response (AID 1933); format: functional; conditions: Homo sapiens
BJ [30] = assay: cells; format: functional, cell-based; conditions: Homo sapiens
BJ [31] = assay: BJ-TERT-LT-ST fibroblast viability loss – cell-based, RAS-independent, luminescence, dose response (AID 1935); format: functional; conditions: Homo sapiens;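 note: BJ fibroblasts immortalized with TERT plus LT and ST oncogenes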
[32] = DRD fibroblast viability loss – cell-based, non-viral oncogenic, luminescence, dose response (AID 1934); format: functional; conditions: Homo sapiens
Galanin receptor type 3 = target: T4, Galanin receptor type 3 (Homo sapiens, UniProt O60755); assay: Fluorescence-based cell-based primary high throughput dose response assay to identify antagonists of the Galanin Receptor 3 (GalR3).; format: functional
T4 sequence (O60755 whole entry): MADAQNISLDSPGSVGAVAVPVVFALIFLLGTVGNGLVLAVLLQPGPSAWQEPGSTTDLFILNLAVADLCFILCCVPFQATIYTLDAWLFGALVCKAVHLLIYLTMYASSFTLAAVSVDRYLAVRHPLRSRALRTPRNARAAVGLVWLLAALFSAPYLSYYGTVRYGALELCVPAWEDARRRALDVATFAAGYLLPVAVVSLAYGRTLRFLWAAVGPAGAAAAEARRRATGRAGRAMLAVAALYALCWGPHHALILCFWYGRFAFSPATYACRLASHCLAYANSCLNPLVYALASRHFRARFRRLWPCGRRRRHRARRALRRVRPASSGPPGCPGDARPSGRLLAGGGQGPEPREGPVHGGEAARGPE

cells [33] = format: functional, cell-based; conditions: HEK-CNG
[34] = viability loss in HepG2 liver cells – cell-based, ATP luminescence, cherry-pick, set 6, cytotoxicity control, dose response (AID 1053125); format: functional
cells [35] = conditions: A549
cells [36] = conditions: HEK293

Sequence of Disintegrin and metalloproteinase domain-containing protein 17 (P78536 whole entry, the tested form may be a part): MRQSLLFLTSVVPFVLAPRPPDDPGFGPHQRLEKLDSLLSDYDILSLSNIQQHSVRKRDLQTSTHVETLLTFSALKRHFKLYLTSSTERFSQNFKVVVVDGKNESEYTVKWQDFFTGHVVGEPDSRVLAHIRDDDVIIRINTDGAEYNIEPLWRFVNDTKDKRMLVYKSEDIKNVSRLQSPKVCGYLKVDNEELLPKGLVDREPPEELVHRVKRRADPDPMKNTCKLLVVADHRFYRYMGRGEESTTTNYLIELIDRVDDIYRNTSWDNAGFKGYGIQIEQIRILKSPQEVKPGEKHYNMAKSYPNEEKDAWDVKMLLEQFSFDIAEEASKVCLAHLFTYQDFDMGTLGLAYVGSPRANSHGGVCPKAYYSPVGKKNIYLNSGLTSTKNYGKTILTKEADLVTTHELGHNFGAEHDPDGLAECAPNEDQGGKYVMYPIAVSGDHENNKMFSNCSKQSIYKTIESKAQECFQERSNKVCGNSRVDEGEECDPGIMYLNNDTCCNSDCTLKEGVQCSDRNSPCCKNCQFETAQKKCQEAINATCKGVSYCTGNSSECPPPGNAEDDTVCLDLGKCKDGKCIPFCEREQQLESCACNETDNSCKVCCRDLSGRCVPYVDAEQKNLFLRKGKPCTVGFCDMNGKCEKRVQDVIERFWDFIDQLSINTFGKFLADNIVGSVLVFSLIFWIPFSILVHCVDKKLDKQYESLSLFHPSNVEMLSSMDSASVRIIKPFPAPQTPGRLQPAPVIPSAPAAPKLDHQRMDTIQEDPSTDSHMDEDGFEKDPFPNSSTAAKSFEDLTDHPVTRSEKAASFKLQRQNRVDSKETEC
Sequence of Paired box protein Pax-8 (Q06710 whole entry): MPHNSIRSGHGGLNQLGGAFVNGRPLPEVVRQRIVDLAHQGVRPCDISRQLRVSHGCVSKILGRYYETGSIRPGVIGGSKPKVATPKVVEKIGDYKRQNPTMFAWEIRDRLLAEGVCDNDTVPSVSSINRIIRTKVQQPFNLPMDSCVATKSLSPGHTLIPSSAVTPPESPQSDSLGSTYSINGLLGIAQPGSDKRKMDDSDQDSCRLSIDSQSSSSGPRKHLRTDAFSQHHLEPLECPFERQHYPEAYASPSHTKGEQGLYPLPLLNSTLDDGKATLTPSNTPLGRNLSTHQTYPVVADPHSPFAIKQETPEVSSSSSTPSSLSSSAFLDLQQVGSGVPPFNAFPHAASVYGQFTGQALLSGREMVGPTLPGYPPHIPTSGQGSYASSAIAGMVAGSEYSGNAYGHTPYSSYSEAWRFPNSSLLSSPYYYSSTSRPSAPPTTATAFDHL

COc1c(CC=C(C)C)cc(C2CC(=O)c3c(O)cc(O)cc3O2)cc1CC=C(C)C (stereo unspecified)
active: EC50 [1] 2.47 µM | EC50 [2] 11.8 µM | EC50 (Streptococcus) 3.2 µM | AC50 [3] 3.04 µM | AC50 (INS1) 4.52 µM | AC50 [4] 5.42 µM | AC50 [5] 2.82 µM | AC50 [6] 24.6 µM

COc1cccc(S(=O)(=O)N2CC[C@@H]3[C@@H](CO)Nc4ccc(-c5ccccc5OC)cc4[C@@H]32)c1
active: AC50 (Paired box protein Pax-8) 10.6 µM | AC50 [7] 33 µM | AC50 [8] 19.6 µM | AC50 [9] 36.5 µM | AC50 [10] 31.1 µM

O=C1C(Nc2cccc(Cl)c2)=C(N2CCCCC2)C(=O)c2ccccc21
active: AC50 [11] 15.7 µM | AC50 [12] 50.1 µM | AC50 [13] 3.46 µM

CCO[C@H]1OC(C(=O)NCc2nc3ccccc3[nH]2)=C[C@@H](c2ccc(Br)cc2)[C@@H]1CCCO
active: IC50 [14] 8.41 µM | IC50 [16] 5.73 µM
inactive: IC50 [15] 83.3 µM | IC50 [17] 57 µM

COc1ccccc1-c1nnc(SCc2ccccn2)o1
active: IC90 [18] 31 µM | IC90 [19] 31 µM

COc1ccc(S(=O)(=O)N2CCC(c3cc(-c4cccc5ccccc45)[nH]n3)CC2)cc1
> 350 µM (not active): EC50 (cells [20]) | EC50 (cells [21])
inactive: IC50 [22] > 69.5 µM | IC50 [23] > 69.5 µM

O=c1nc(Nc2ccc(OCc3ccccc3)cc2)sc2ncccc12
active: IC50 (Vero [24]) 2.86 µM | CC50 (Vero [25]) > 25 µM | IC50 [26] 2.38 µM | IC50 [27] 0.94 µM | IC50 [28] 2.79 µM

COc1ccc(N2C(C)=CC(=Cc3sc4ccccc4[n+]3C)C=C2C)cc1
inconclusive: EC50 (BJ [29]) 0.359 µM | EC50 (BJ [31]) 4 µM | EC50 [32] 2.06 µM
inactive: EC50 (cells [33]) > 29.9 µM
active: IC50 (Leucine aminopeptidase) 60.3 µM | EC50 (BJ [30]) 1.38 µM | IC50 (Galanin receptor type 3) 0.246 µM | AC50 [34] 14.3 µM | AC50 (cells [35]) 0.315 µM | AC50 (cells [36]) 3.36 µM
